{"source": "the supplement of paper PMC9663587", "key": {"[1]": {"compound": "CC(=O)O[C@H]1C(=O)[C@@]2(C)[C@H]([C@H](OC(=O)c3ccccc3)[C@]3(O)C[C@H](OC(=O)[C@H](O)[C@@H](NC(=O)c4ccccc4)c4ccccc4)C(C)=C1C3(C)C)[C@]1(OC(C)=O)CO[C@@H]1C[C@@H]2O [Paclitaxel]"}, "[2]": {"compound": "CN(C)CC[C@H](CSc1ccccc1)Nc1ccc(S(=O)(=O)NC(=O)c2ccc(N3CCN(Cc4ccccc4-c4ccc(Cl)cc4)CC3)cc2)cc1[N+](=O)[O-] [ABT-737]"}, "[3]": {"compound": "CCNC(=O)c1noc(-c2cc(C(C)C)c(O)cc2O)c1-c1ccc(CN2CCOCC2)cc1 [Luminespib/NVP-AUY922]"}, "[4]": {"compound": "CN(C)C/C=C/C(=O)Nc1ccc(O[C@@H]2CCC[C@@H](Nc3ncc(Cl)c(-c4c[nH]c5ccccc45)n3)C2)cc1 [BSJ-01-175]"}, "[5]": {"compound": "T1, CN1CC[C@H](c2c(O)cc(O)c3c(=O)cc(-c4ccccc4Cl)oc23)[C@H](O)C1 [Flavopiridol]"}, "[6]": {"compound": "O=C(c1cc(Cc2n[nH]c(=O)c3ccccc23)ccc1F)N1CCN(C(=O)C2CC2)CC1 [Olaparib/AZD2281]"}, "[7]": {"compound": "COc1cccc2c1C(=O)c1c(O)c3c(c(O)c1C2=O)C[C@@](O)(C(=O)CO)C[C@@H]3O[C@H]1C[C@H](N)[C@H](O)[C@H](C)O1 [Doxorubicin]"}, "[8]": {"compound": "CC(C)NC[C@@H](C(=O)N1CCN(c2ncnc3c2[C@H](C)C[C@H]3O)CC1)c1ccc(Cl)cc1 [Ipatasertib/GDC0068]"}, "[9]": {"compound": "Cc1nc(-c2cn3c(n2)-c2ccc(-c4cnn(C(C)(C)C(N)=O)c4)cc2OCC3)n(C(C)C)n1 [Taselisib/GDC0032]"}, "[10]": {"compound": "CC(=O)c1c(C)c2cnc(Nc3ccc(N4CCN(CCOCCOCCOCCNC(=O)COc5cccc6c5C(=O)N(C5CCC(=O)NC5=O)C6=O)CC4)cn3)nc2n(C2CCCC2)c1=O [BSJ-03-123]", "assay": "GR value, 72 h; higher = faster growth (1 = untreated, <0 = killing);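 note: breast cancer and non-malignant breast epithelial lines, nine half-log doses, viable cells counted by Hoechst and LIVE/DEAD dye imaging versus time-zero plates and DMSO controls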"}, "[11]": {"compound": "C=CC(=O)Nc1ccc(C(=O)Nc2[nH]nc3c2CN(C(=O)N[C@H](CN(C)C)c2ccccc2)C3(C)C)cc1 [YKL-5-124]", "assay": "GR value, 72 h; higher = faster growth (1 = untreated, <0 = killing)"}, "[12]": {"compound": "CC(=O)c1c(C)c2cnc(Nc3ccc(N4CCNCC4)cn3)nc2n(C2CCCC2)c1=O", "assay": "GR value, 72 h; higher = faster growth (1 = untreated, <0 = killing)"}, "[13]": {"compound": "CN(C)C/C=C/C(=O)Nc1ccc(C(=O)N2CCC[C@@H](Nc3ncc(Cl)c(-c4c[nH]c5ccccc45)n3)C2)cc1 [THZ531]", "assay": "GR value, 72 h; higher = faster growth (1 = untreated, <0 = killing)"}, "[14]": {"compound": "T1, Flavopiridol", "assay": "GR value, 72 h; higher = faster growth (1 = untreated, <0 = killing)"}, "[15]": {"compound": "CCN1CCN(Cc2ccc(Nc3ncc(F)c(-c4cc(F)c5nc(C)n(C(C)C)c5c4)n3)nc2)CC1", "assay": "GR value, 72 h; higher = faster growth (1 = untreated, <0 = killing)"}, "[16]": {"compound": "CN(C)C(=O)c1cc2cnc(Nc3ccc(N4CCNCC4)cn3)nc2n1C1CCCC1 [LEE011/Ribociclib]", "assay": "GR value, 72 h; higher = faster growth (1 = untreated, <0 = killing)"}, "[17]": {"compound": "CCc1cnn2c(NCc3ccc[n+]([O-])c3)cc(N3CCCC[C@H]3CCO)nc12", "assay": "GR value, 72 h; higher = faster growth (1 = untreated, <0 = killing)"}}}
{"cell line": "HCC1419", "values": [{"measurement": "GR50, 72 h", "setting": "[1]", "result": 0.00526, "unit": "µM"}, {"measurement": "GR50, 72 h", "setting": "[2]", "result": 9.85, "unit": "µM"}, {"measurement": "GR50, 72 h", "setting": "[3]", "result": 0.007, "unit": "µM"}, {"measurement": "GR50, 72 h", "setting": "[4]", "result": 0.541, "unit": "µM"}, {"measurement": "GR50, 72 h", "setting": "[5]", "result": 0.191, "unit": "µM"}, {"measurement": "GR50, 72 h", "setting": "[6]", "result": "> 10", "unit": "µM"}, {"measurement": "GR50, 72 h", "setting": "[7]", "result": 0.0251, "unit": "µM"}, {"measurement": "GR50, 72 h", "setting": "[8]", "result": "> 10", "unit": "µM"}, {"measurement": "GR50, 72 h", "setting": "[9]", "result": 0.00918, "unit": "µM"}, {"measurement": "GR value", "setting": "[10]; 0.001 µM", "result": 0.753, "unit": "GR"}, {"measurement": "GR value", "setting": "[10]; 0.003162 µM", "result": 0.75, "unit": "GR"}, {"measurement": "GR value", "setting": "[10]; 0.01 µM", "result": 0.669, "unit": "GR"}, {"measurement": "GR value", "setting": "[10]; 0.03162 µM", "result": 0.644, "unit": "GR"}, {"measurement": "GR value", "setting": "[10]; 0.1 µM", "result": 0.643, "unit": "GR"}, {"measurement": "GR value", "setting": "[10]; 0.3162 µM", "result": 0.527, "unit": "GR"}, {"measurement": "GR value", "setting": "[10]; 1 µM", "result": 0.432, "unit": "GR"}, {"measurement": "GR value", "setting": "[10]; 3.162 µM", "result": 0.443, "unit": "GR"}, {"measurement": "GR value", "setting": "[10]; 10 µM", "result": 0.165, "unit": "GR"}, {"measurement": "GR value", "setting": "[11]; 0.001 µM", "result": 0.259, "unit": "GR"}, {"measurement": "GR value", "setting": "[11]; 0.003162 µM", "result": 0.184, "unit": "GR"}, {"measurement": "GR value", "setting": "[11]; 0.01 µM", "result": 0.0618, "unit": "GR"}, {"measurement": "GR value", "setting": "[11]; 0.03162 µM", "result": 0.124, "unit": "GR"}, {"measurement": "GR value", "setting": "[11]; 0.1 µM", "result": -0.0246, "unit": "GR"}, {"measurement": "GR value", "setting": "[11]; 0.3162 µM", "result": -0.0463, "unit": "GR"}, {"measurement": "GR value", "setting": "[11]; 1 µM", "result": -0.0452, "unit": "GR"}, {"measurement": "GR value", "setting": "[11]; 3.162 µM", "result": -0.184, "unit": "GR"}, {"measurement": "GR value", "setting": "[11]; 10 µM", "result": -0.379, "unit": "GR"}, {"measurement": "GR value", "setting": "[12]; 0.0003162 µM", "result": 1.18, "unit": "GR"}, {"measurement": "GR value", "setting": "[12]; 0.001 µM", "result": 1.09, "unit": "GR"}, {"measurement": "GR value", "setting": "[12]; 0.003162 µM", "result": 1.11, "unit": "GR"}, {"measurement": "GR value", "setting": "[12]; 0.01 µM", "result": 0.903, "unit": "GR"}, {"measurement": "GR value", "setting": "[12]; 0.03162 µM", "result": 0.828, "unit": "GR"}, {"measurement": "GR value", "setting": "[12]; 0.1 µM", "result": 0.612, "unit": "GR"}, {"measurement": "GR value", "setting": "[12]; 0.3162 µM", "result": 0.535, "unit": "GR"}, {"measurement": "GR value", "setting": "[12]; 1 µM", "result": 0.393, "unit": "GR"}, {"measurement": "GR value", "setting": "[12]; 3.162 µM", "result": 0.492, "unit": "GR"}, {"measurement": "GR value", "setting": "[13]; 0.0001 µM", "result": 0.969, "unit": "GR"}, {"measurement": "GR value", "setting": "[13]; 0.0003162 µM", "result": 1.03, "unit": "GR"}, {"measurement": "GR value", "setting": "[13]; 0.001 µM", "result": 1.02, "unit": "GR"}, {"measurement": "GR value", "setting": "[13]; 0.003162 µM", "result": 0.993, "unit": "GR"}, {"measurement": "GR value", "setting": "[13]; 0.01 µM", "result": 1.18, "unit": "GR"}, {"measurement": "GR value", "setting": "[13]; 0.03162 µM", "result": 1.08, "unit": "GR"}, {"measurement": "GR value", "setting": "[13]; 0.1 µM", "result": 0.772, "unit": "GR"}, {"measurement": "GR value", "setting": "[13]; 0.3162 µM", "result": 0.0179, "unit": "GR"}, {"measurement": "GR value", "setting": "[13]; 1 µM", "result": -0.31, "unit": "GR"}, {"measurement": "GR value", "setting": "[14]; 0.0001 µM", "result": 1.06, "unit": "GR"}, {"measurement": "GR value", "setting": "[14]; 0.0003162 µM", "result": 0.994, "unit": "GR"}, {"measurement": "GR value", "setting": "[14]; 0.001 µM", "result": 0.974, "unit": "GR"}, {"measurement": "GR value", "setting": "[14]; 0.003162 µM", "result": 0.95, "unit": "GR"}, {"measurement": "GR value", "setting": "[14]; 0.01 µM", "result": 0.932, "unit": "GR"}, {"measurement": "GR value", "setting": "[14]; 0.03162 µM", "result": 0.894, "unit": "GR"}, {"measurement": "GR value", "setting": "[14]; 0.1 µM", "result": 0.658, "unit": "GR"}, {"measurement": "GR value", "setting": "[14]; 0.3162 µM", "result": 0.396, "unit": "GR"}, {"measurement": "GR value", "setting": "[14]; 1 µM", "result": -0.261, "unit": "GR"}, {"measurement": "GR value", "setting": "[15]; 0.001 µM", "result": 1.13, "unit": "GR"}, {"measurement": "GR value", "setting": "[15]; 0.003162 µM", "result": 0.823, "unit": "GR"}, {"measurement": "GR value", "setting": "[15]; 0.01 µM", "result": 0.714, "unit": "GR"}, {"measurement": "GR value", "setting": "[15]; 0.03162 µM", "result": 0.548, "unit": "GR"}, {"measurement": "GR value", "setting": "[15]; 0.1 µM", "result": 0.548, "unit": "GR"}, {"measurement": "GR value", "setting": "[15]; 0.3162 µM", "result": 0.415, "unit": "GR"}, {"measurement": "GR value", "setting": "[15]; 1 µM", "result": 0.487, "unit": "GR"}, {"measurement": "GR value", "setting": "[15]; 3.162 µM", "result": 0.303, "unit": "GR"}, {"measurement": "GR value", "setting": "[15]; 10 µM", "result": 0.2, "unit": "GR"}, {"measurement": "GR value", "setting": "[16]; 0.001 µM", "result": 0.953, "unit": "GR"}, {"measurement": "GR value", "setting": "[16]; 0.003162 µM", "result": 0.835, "unit": "GR"}, {"measurement": "GR value", "setting": "[16]; 0.01 µM", "result": 0.774, "unit": "GR"}, {"measurement": "GR value", "setting": "[16]; 0.03162 µM", "result": 0.889, "unit": "GR"}, {"measurement": "GR value", "setting": "[16]; 0.1 µM", "result": 0.685, "unit": "GR"}, {"measurement": "GR value", "setting": "[16]; 0.3162 µM", "result": 0.58, "unit": "GR"}, {"measurement": "GR value", "setting": "[16]; 1 µM", "result": 0.655, "unit": "GR"}, {"measurement": "GR value", "setting": "[16]; 3.162 µM", "result": 0.561, "unit": "GR"}, {"measurement": "GR value", "setting": "[16]; 10 µM", "result": 0.525, "unit": "GR"}, {"measurement": "GR value", "setting": "[17]; 0.0001 µM", "result": 1.15, "unit": "GR"}, {"measurement": "GR value", "setting": "[17]; 0.0003162 µM", "result": 1.16, "unit": "GR"}, {"measurement": "GR value", "setting": "[17]; 0.001 µM", "result": 1.06, "unit": "GR"}, {"measurement": "GR value", "setting": "[17]; 0.003162 µM", "result": 1.25, "unit": "GR"}, {"measurement": "GR value", "setting": "[17]; 0.01 µM", "result": 1.15, "unit": "GR"}, {"measurement": "GR value", "setting": "[17]; 0.03162 µM", "result": 0.199, "unit": "GR"}, {"measurement": "GR value", "setting": "[17]; 0.1 µM", "result": -0.384, "unit": "GR"}, {"measurement": "GR value", "setting": "[17]; 0.3162 µM", "result": -0.426, "unit": "GR"}, {"measurement": "GR value", "setting": "[17]; 1 µM", "result": -0.471, "unit": "GR"}]}
